Among the test systems are MDA-MB-435; NCI/ADR-RES ovarian; RXF 393 renal.
Common to all, as to assay: DTP human tumour cell line panel, 48 h

SMILES strings stand for the structures.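 Results reflect a 48-hour exposure of cells in 96-well plates to compound at five concentrations. Definition used: TGI = concentration required for complete inhibition of growth.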

By TGI is commonly meant the concentration at which net growth stops. Low values mean more potent growth arrest, high ones less potent growth arrest.

As to `COc1cc2cc(C(=O)N3CC(CCl)c4c3cc([N+](C)(C)Cc3ccc([N+](=O)[O-])n3C)c3ccccc43)[nH]c2c(OC)c1OC` (stereo not drawn), the TGI in the assay with MDA-MB-435 was 60.7 µM; with NCI/ADR-RES ovarian, 4.38 µM.
In the case of `Cc1cc2n([O-])cccc-2[n+](=O)c1`, the TGI in the assay with RXF 393 renal is above 100 µM.
